Measurements taken from patent US6436956B1, “Useful form of anhydrous paroxetine hydrochloride” (Brantford Chemicals Inc., priority 1996, dated 2002).
Where a name gives a salt, the structure may show the parent alone. Read-outs that look alike come from different tables or passages of the source.

Legend:
[1] = bulk density and tapped density of the solid; format: physicochemical
[2] = hygroscopicity / moisture uptake on exposure to open air; format: physicochemical
[3] = solid-form stability, conversion to the hemihydrate polymorph (DSC maximum of 143° C.); format: physicochemical
[4] = prior-art form, purported; cited from earlier work
[5] = prior-art form, from literature; cited from earlier work
[6] = Form IV as described in summary (material of Example 2)
[7] = material of Example 5 (methanol solution evaporated to foam, dried, pulverized)

## Cl.Fc1ccc([C@@H]2CCNC[C@H]2COc2ccc3c(c2)OCO3)cc1 [Form IV, paroxetine hydrochloride (anhydrous)]
[1]; [6]
  bulk density: exceeding 0.6 g/mL
  tapped density: exceeding 0.9 g/mL
[1]; [7]
  bulk density: exceeding 0.43 g/mL
  tapped density: > 0.58 g/mL
[2]
  hygroscopic nature: substantially non-hygroscopic
[2]; exposed to open air for three days, ca. 50% relative humidity
  moisture taken on: ≤ 1.5 % by weight
[3]
  stability: very stable
[3]; even in humid environments, DSC maximum of 143° C. as indicator
  rate of conversion to the hemihydrate polymorph: negligible rate

## Fc1ccc([C@@H]2CCNC[C@H]2COc2ccc3c(c2)OCO3)cc1 [hemihydrate form, paroxetine hydrochloride hemihydrate]
[4]
  stability: purportedly stable

## Fc1ccc([C@@H]2CCNC[C@H]2COc2ccc3c(c2)OCO3)cc1 [anhydrous form, paroxetine hydrochloride]
[5]
  hygroscopic nature: hygroscopic
